Experimental data as given in ChEMBL document CHEMBL4017441, “Mitigating the inhibition of human bile salt export pump by drugs: opportunities provided by physicochemical property modulation, in silico modeling, and structural modification” (Drug Metab Dispos, 2012).
Where a name gives a salt, the structure may show the parent alone.

Columns and labels:
Bile salt export pump [1] = biological target: T1, Bile salt export pump (Rattus norvegicus, UniProt O70127); experiment: Inhibition of BSEP in Sprague-Dawley rat canalicular membrane vesicles assessed as reduction in ATP-dependent [3H]-taurocholate uptake; format: ADME
T1 sequence (O70127 whole entry): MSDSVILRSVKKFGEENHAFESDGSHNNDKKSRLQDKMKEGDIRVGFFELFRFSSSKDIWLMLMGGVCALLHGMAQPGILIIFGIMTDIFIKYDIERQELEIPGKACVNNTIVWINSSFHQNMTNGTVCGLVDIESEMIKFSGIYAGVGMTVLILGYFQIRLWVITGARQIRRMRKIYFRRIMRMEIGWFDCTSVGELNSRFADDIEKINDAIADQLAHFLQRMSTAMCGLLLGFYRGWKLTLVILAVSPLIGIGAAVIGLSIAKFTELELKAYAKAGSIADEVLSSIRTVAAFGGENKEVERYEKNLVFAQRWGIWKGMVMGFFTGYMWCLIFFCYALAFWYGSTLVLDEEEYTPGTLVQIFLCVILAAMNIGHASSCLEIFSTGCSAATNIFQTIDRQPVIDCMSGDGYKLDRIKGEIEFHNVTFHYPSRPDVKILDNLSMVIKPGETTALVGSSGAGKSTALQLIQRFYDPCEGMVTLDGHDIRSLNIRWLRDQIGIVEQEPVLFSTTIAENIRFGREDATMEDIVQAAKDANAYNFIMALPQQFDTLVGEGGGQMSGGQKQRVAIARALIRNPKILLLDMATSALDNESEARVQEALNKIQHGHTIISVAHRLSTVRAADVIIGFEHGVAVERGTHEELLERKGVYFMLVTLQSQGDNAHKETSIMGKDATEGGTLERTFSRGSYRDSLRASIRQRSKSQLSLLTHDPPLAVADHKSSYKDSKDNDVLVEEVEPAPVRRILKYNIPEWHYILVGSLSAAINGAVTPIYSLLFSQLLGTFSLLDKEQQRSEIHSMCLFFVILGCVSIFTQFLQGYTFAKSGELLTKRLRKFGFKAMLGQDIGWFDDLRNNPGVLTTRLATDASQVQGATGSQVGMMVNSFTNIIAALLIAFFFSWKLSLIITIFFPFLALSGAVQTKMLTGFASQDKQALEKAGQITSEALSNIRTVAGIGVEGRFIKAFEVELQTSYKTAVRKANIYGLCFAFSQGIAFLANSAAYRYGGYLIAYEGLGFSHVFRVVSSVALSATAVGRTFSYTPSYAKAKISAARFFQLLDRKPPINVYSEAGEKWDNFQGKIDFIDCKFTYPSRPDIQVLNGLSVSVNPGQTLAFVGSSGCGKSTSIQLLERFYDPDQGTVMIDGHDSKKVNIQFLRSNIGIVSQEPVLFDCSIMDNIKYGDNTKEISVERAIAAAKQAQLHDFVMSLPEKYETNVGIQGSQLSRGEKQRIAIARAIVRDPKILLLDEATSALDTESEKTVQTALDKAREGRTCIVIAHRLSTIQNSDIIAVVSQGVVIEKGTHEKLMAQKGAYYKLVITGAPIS

Bile salt export pump [2] = biological target: Bile salt export pump (Homo sapiens, UniProt O95342); format: ADME

Molecule | Ki (Bile salt export pump [1]) [µM] | IC50 (Bile salt export pump [2]) [µM]
COc1ccc(CCN(C)CCCC(C#N)(c2ccc(OC)c(OC)c2)C(C)C)cc1OC (centres undefined) | 92.5 | –
O=C(CCCN1CCC2(CC1)C(=O)NCN2c1ccccc1)c1ccc(F)cc1 [SPIPERONE] | – | < 10
CCOC(=O)[C@H](CCc1ccccc1)N[C@@H](C)C(=O)N1CC2(C[C@H]1C(=O)O)SCCS2 [SPIRAPRIL HYDROCHLORIDE] | – | 47.1
O=C(O)CCC(=O)Nc1ccc(S(=O)(=O)Nc2nccs2)cc1 [SUCCINYLSULFATHIAZOLE] | – | > 1000
CC(=O)NS(=O)(=O)c1ccc(N)cc1 [SULFACETAMIDE] | – | > 1000
Nc1ccc(S(=O)(=O)Nc2ccc(Cl)nn2)cc1 [SULFACHLORPYRIDAZINE] | – | > 1000
Nc1ccc(S(=O)(=O)Nc2ncccn2)cc1 [SULFADIAZINE] | – | > 1000
COc1cc(NS(=O)(=O)c2ccc(N)cc2)nc(OC)n1 [SULFADIMETHOXINE] | – | > 1000
COc1ncnc(NS(=O)(=O)c2ccc(N)cc2)c1OC [SULFADOXINE] | – | > 1000
Cc1ccnc(NS(=O)(=O)c2ccc(N)cc2)n1 [SULFAMERAZINE] | – | > 1000
Cc1cc(C)nc(NS(=O)(=O)c2ccc(N)cc2)n1 [SULFAMETHAZINE] | – | > 1000
Cc1nnc(NS(=O)(=O)c2ccc(N)cc2)s1 [SULFAMETHIZOLE] | – | > 1000
Cc1cc(NS(=O)(=O)c2ccc(N)cc2)no1 [SULFAMETHOXAZOLE] | – | > 1000
Cc1noc(NS(=O)(=O)c2ccc(N)cc2)c1C [SULFISOXAZOLE] | – | > 1000
CCN1CCCC1CNC(=O)c1cc(S(N)(=O)=O)ccc1OC (centres undefined) [SULPIRIDE] | – | 276
CCN(CC)CCNC(=O)c1c(C)[nH]c(/C=C2\C(=O)Nc3ccc(F)cc32)c1C [SUNITINIB] | – | 45.8
Cc1ccc(C(=O)Nc2ccc(S(=O)(=O)O)c3cc(S(=O)(=O)O)cc(S(=O)(=O)O)c23)cc1NC(=O)c1cccc(NC(=O)Nc2cccc(C(=O)Nc3cc(C(=O)Nc4ccc(S(=O)(=O)O)c5cc(S(=O)(=O)O)cc(S(=O)(=O)O)c45)ccc3C)c2)c1 [SURAMIN] | – | 107
CC[C@H](NC(=O)c1c(O)c(-c2ccccc2)nc2ccccc12)c1ccccc1 [TALNETANT] | – | < 10
O=C1OC(OC(=O)c2cccnc2Nc2cccc(C(F)(F)F)c2)c2ccccc21 (centres undefined) [TALNIFLUMATE] | – | > 1000
Cc1scc2c1N(C(=O)CN1CCN(C)CC1)c1ccccc1NC2=O [TELENZEPINE] | – | 315
CC1(C)CC(O)CC(C)(C)N1[O] [TEMPOL] | – | > 1000
CC(C)(C)c1cc(C(C)(C)C)c2oc(C(=O)O)cc(=O)c2c1 [TERBUCROMIL] | – | < 10
CC(C)(C)c1ccc(C(O)CCCN2CCC(C(O)(c3ccccc3)c3ccccc3)CC2)cc1 (centres undefined) [TERFENADINE] | – | < 17.5

Molecule | Ki (Bile salt export pump [1]) [µM] | IC50 (Bile salt export pump [2]) [µM]
CCCCNc1ccc(C(=O)OCCN(C)C)cc1 [TETRACAINE] | – | 513
O=C1C(O)=C(O)C(=O)C(O)=C1O [TETROQUINONE] | – | > 1000
O=C1CCC(N2C(=O)c3ccccc3C2=O)C(=O)N1 (centres undefined) [THALIDOMIDE] | – | > 1000
c1ccc2[nH]c(-c3cscn3)nc2c1 [THIABENDAZOLE] | – | 560
CSc1ccc2c(c1)N(CCC1CCCCN1C)c1ccccc1S2 (centres undefined) [THIORIDAZINE] | – | 24.3
O=C(O)c1ccccc1S [THIOSALICYLIC ACID] | – | > 1000
S=P(N1CC1)(N1CC1)N1CC1 [THIOTEPA] | – | > 1000
CN1CCN(CC/C=C2/c3ccccc3Sc3ccc(S(=O)(=O)N(C)C)cc32)CC1 [THIOTHIXENE] | – | 30.4
CC(C)(C)NC[C@H](O)COc1nsnc1N1CCOCC1 [TIMOLOL] | – | > 1000
C[N+]1(C)[C@@H]2C[C@@H](OC(=O)C(O)(c3cccs3)c3cccs3)C[C@H]1[C@@H]1O[C@@H]12 [TIOTROPIUM] | – | > 1000
Cc1ccc(S(=O)(=O)NC(=O)NN2CCCCCC2)cc1 [TOLAZAMIDE] | – | 286
Cc1ccc(C(=O)c2cc(O)c(O)c([N+](=O)[O-])c2)cc1 [TOLCAPONE] | – | < 33.9
Cc1cccc(N(C)C(=S)Oc2ccc3ccccc3c2)c1 [TOLNAFTATE] | – | < 10.3
COc1ccc2c(C(=S)N(C)CC(=O)O)cccc2c1C(F)(F)F [TOLRESTAT] | – | 185
CCCc1c(OCCCCc2nnn[nH]2)ccc(C(C)=O)c1O [TOMELUKAST] | – | < 10.7
CC1(C)O[C@@H]2[C@@H](CO[C@@]3(COS(N)(=O)=O)OC(C)(C)O[C@@H]23)O1 [TOPIRAMATE] | – | > 1000
CCOCn1cnc2c1c(=O)n(CCCCC(C)(C)O)c(=O)n2C [TORBAFYLLINE] | – | 305
Cc1cccc(Nc2ccncc2S(=O)(=O)NC(=O)NC(C)C)c1 [TORSEMIDE] | – | 131
N[C@@H]1C[C@H]1c1ccccc1.N[C@H]1C[C@@H]1c1ccccc1 [TRANYLCYPROMINE] | – | > 1000
CC1=C(/C=C/C(C)=C/C=C/C(C)=C/C(=O)O)C(C)(C)CCC1 [TRETINOIN] | – | < 10
C[C@]12C=CC(=O)C=C1CC[C@H]1[C@@H]3C[C@@H](O)[C@](O)(C(=O)CO)[C@@]3(C)C[C@H](O)[C@@]12F [TRIAMCINOLONE] | – | 236
O=C(CCCN1CCC(O)(c2cccc(C(F)(F)F)c2)CC1)c1ccc(F)cc1 [TRIFLUPERIDOL] | – | 19.7
CN(C)CCCN1c2ccccc2Sc2ccc(C(F)(F)F)cc21 [TRIFLUPROMAZINE] | – | 39

Molecule | Ki (Bile salt export pump [1]) [µM] | IC50 (Bile salt export pump [2]) [µM]
O=c1[nH]c(=O)n([C@H]2C[C@H](O)[C@@H](CO)O2)cc1C(F)(F)F [TRIFLURIDINE] | – | > 1000
CCC(COC(=O)c1cc(OC)c(OC)c(OC)c1)(c1ccccc1)N(C)C (centres undefined) [TRIMEBUTINE] | – | < 10
COc1cc(Cc2cnc(N)nc2N)cc(OC)c1OC [TRIMETHOPRIM] | – | 833
COc1cc(C(=O)N2CCOCC2)cc(OC)c1OC [TRIMETOZINE] | – | > 1000
Cc1cc2cc3c(C)cc(=O)oc3c(C)c2o1 [TRIOXSALEN] | – | > 525
Cc1ccc(/C(=C\CN2CCCC2)c2ccccn2)cc1 [TRIPROLIDINE] | – | 291
Cc1c(C)c2c(c(C)c1O)CCC(C)(COc1ccc(CC3SC(=O)NC3=O)cc1)O2 (centres undefined) [TROGLITAZONE] | – | 6.9
CCN(Cc1ccncc1)C(=O)C(CO)c1ccccc1 (centres undefined) [TROPICAMIDE] | – | 151
CC(C)(C)NCC(O)c1ccccc1Cl (centres undefined) [TULOBUTEROL] | – | > 1000
C[C@H](CCC(=O)O)[C@H]1CC[C@H]2[C@@H]3[C@@H](O)C[C@@H]4C[C@H](O)CC[C@]4(C)[C@H]3CC[C@]12C [URSODIOL] | – | < 10
CCOC(=O)[C@H](CCc1ccccc1)N[C@@H](C)C(=O)N1N=C(C(C)(C)C)S[C@H]1C(=O)O [UTIBAPRIL] | – | < 13.5
Clc1ccc(Nc2nnc(Cc3ccncc3)c3ccccc23)cc1 [VATALANIB] | – | < 10
COc1ccc(C(CN(C)C)C2(O)CCCCC2)cc1 (centres undefined) [VENLAFAXINE] | – | > 1000
CC(=O)CC(c1ccccc1)c1c(O)c2ccccc2oc1=O (centres undefined) [WARFARIN] | – | 115
FC(F)(F)c1cccc(C2=CCN(CCc3ccc4ccccc4c3)CC2)c1 [XALIPRODEN] | – | 117
Cc1cccc(C)c1N=C1NCCCS1 [XYLAZINE] | – | > 1000
Cc1cc(C(C)(C)C)cc(C)c1CC1=NCCN1 [XYLOMETAZOLINE] | – | > 796
COC(=O)[C@@H]1[C@H]2C[C@H]3c4[nH]c5ccccc5c4CCN3C[C@@H]2CC[C@@H]1O [YOHIMBINE] | – | 254
C[C@](O)(C(=O)Nc1ccc(C(=O)c2ccccc2)cc1)C(F)(F)F [ZD-6169] | – | 21.4
CC(c1cc2ccccc2s1)N(O)C(N)=O (centres undefined) [ZILEUTON] | – | > 751
BISMUTH SUBSALICYLATE | – | > 1000
IVERMECTIN | – | < 10
PHENYLMERCURIC ACETATE | – | < 10
